Reference: patent US10245275B2 (ViiV HEALTHCARE UK (NO.4) LIMITED, priority 2014, dated 2019)
Like-named read-outs stand apart in the source and are kept apart here.

What was measured:
[1] = test system: HIV-1 92UG029 (clade A virus); assay: HIV cell culture assay, 92UG029 Gag/Pr recombinant virus in MT-2 cells; type: cell-based
Experimental: MT-2 cells and 293T cells were obtained from the NIH AIDS Research and Reference Reagent Program. MT-2 cells were propagated in RPMI 1640 media supplemented with 10% heat-inactivated fetal bovine serum, […]. The 293T cells were propagated in DMEM media supplemented with 10% heat-inactivated fetal bovine serum (FBS), 100 units/mL penicillin G and 100 μg/mL streptomycin. The proviral DNA clone of NL4-3 was obtained from the NIH AIDS Research and Reference Reagent Program. A recombinant NL4-3 virus, in which a section of the nef gene from NL4-3 was replaced with the Renilla luciferase gene, was used as a reference virus. In addition, residue Gag P373 was converted to P373S. Briefly, the recombinant virus was prepared by transfection of the altered proviral clone of NL4-3. Transfections were performed in 293T cells using LipofectAMINE PLUS from Invitrogen (Carlsbad, Calif.), according to manufacturer's instruction. The virus was titered in MT-2 cells using luciferase enzyme activity as a marker. Luciferase was quantitated using the Dual Luciferase kit from Promega (Madison, Wis.), with modifications to the manufacturer's protocol. The diluted Passive Lysis solution was pre-mixed with the re-suspended Luciferase Assay Reagent and the re-suspended Stop & Glo Substrate (2:1:1 ratio). Fifty (50) μL of the mixture was added to each aspirated well on assay plates and luciferase activity was measured immediately on a Wallac TriLux (Perkin-Elmer). Antiviral activities of inhibitors toward the recombinant virus were quantified by measuring luciferase activity in cells infected for 4-5 days with NLRluc recombinants in the presence serial dilutions of the inhibitor.
Determination of EC50 for WT, EC50 for A364V, and EC50 for 92UG029 viruses:
HIV-1 92UG029 was obtained from the NIH (Catalog Number: 1650). This is a subtype A Gag and subtype A Env, X4 (SI) virus from Uganda. Reference: WHO Network for HIV Isolation and Characterization. AIDS Res Hum Retroviruses 10:1359, 1994. The Gag/Pr region from 92UG029 was used to replace that in an HIV-1 NL4-3 virus expressing Renilla luciferase gene.
Both recombinant viruses were used as described above in the HIV cell culture assay for the NL4-3 virus.

[2] = test system: HIV-1 NL4-3 gag A364V virus; assay: microbe, parasite or virus in culture; type: cell-based
Procedure, shortened: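 Recombinant NL4-3 reporter virus with Renilla luciferase replacing part of nef, made by transfection of 293T cells. MT-2 cells infected for 4-5 days with serial inhibitor dilutions; antiviral activity quantified by luciferase activity.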

[3] = test system: WT (wild-type HIV virus; recombinant NL4-3 virus); assay: microbe, parasite or virus in culture; type: cell-based, HIV-1
Procedure, shortened: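 MT-2 cells infected 4-5 days with NL4-3 carrying Renilla luciferase in place of part of nef (Gag P373S), virus made by 293T transfection, with serial inhibitor dilutions. Antiviral activity read as luciferase activity by a modified dual-luciferase read-out.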

[4] = Human immunodeficiency virus 1, MT2, read-out: 92UG029A Clade T332S/V362I/V370A (EC50, uM)
[5] = Human immunodeficiency virus 1, NL43, MT2, read-out: A364V (EC50, uM), Table 1 regular screen, class symbol
[6] = Human immunodeficiency virus 1, NL43, MT2, read-out: WT (EC50, uM), Table 1 regular screen, class symbol

**Q.** For `C=C(C)[C@@H]1CC[C@]2(NCCN3CCC(S(C)(=O)=O)CC3)CC[C@]3(C)[C@H](CC[C@@H]4[C@@]5(C)CC=C(C6=CCC(F)(C(=O)O)CC6)C(C)(C)[C@@H]5CC[C@]43C)[C@@H]12` (stereo partly drawn) [Compound A, reference compound], which EC50 ([1]; Human immunodeficiency virus 1, MT2, read-out: EC50 92UG029 (μM)) is on record?
**A.** 0.61 µM

**Q.** And the “fold less potent than Compound 2 vs 92UG029” value ([1]; relative to Compound 2)?
**A.** > 100 fold

**Q.** And the EC50 ([2]; Human immunodeficiency virus 1, NL43, MT2, read-out: EC50 A364V (μM), Table 2, 3× higher viral input)?
**A.** 1.5 µM

**Q.** And the “fold less potent than Compound 2 vs A364V” value ([2]; relative to Compound 2)?
**A.** about 7 fold

**Q.** And the EC50 ([3]; Human immunodeficiency virus 1, NL43, MT2, read-out: EC50 WT (μM), Table 2, 3× higher viral input)?
**A.** 0.004 µM

**Q.** What about the “potency vs. WT (in words)” value ([3]; comparative data) of the same compound?
**A.** good potency

**Q.** What does the source list for `C=C(C)[C@@H]1CC[C@]2(NCC[C@]3(O)CC[C@@H](S(C)(=O)=O)CC3)CC[C@]3(C)[C@H](CC[C@@H]4[C@@]5(C)CC=C(C6=CC[C@@](CF)(C(=O)O)CC6)C(C)(C)[C@@H]5CC[C@]43C)[C@@H]12` [Example 2-20, (R)-1-(fluoromethyl)-4-((1R,3aS,5aR,5bR,7aR,11aS,11bR,13aR,13bR)-3a-((2-((cis)-1-hydroxy-4-(methylsulfonyl)cyclohexyl)ethyl)amino)-5a,5b,8,8,11a-pentamethyl-1-(prop-1-en-2-yl)-2,3,3a,4,5,5a,5b,6,7,7a,8,11,11a,11 b,12,13,13a,13b-octadecahydro-1H-cyclopenta[a]chrysen-9-yl)cyclohex-3-enecarboxylic acid]?
**A.** EC50 [1, 4]: < 0.05 µM; EC50 [2, 5]: > 0.05 µM; EC50 [3, 6]: < 0.05 µM

**Q.** What does the source list for `C=C(C)[C@@H]1CC[C@]2(NCCN3CCC(S(C)(=O)=O)CC3)CC[C@]3(C)[C@H](CC[C@@H]4[C@@]5(C)CC=C(C6=CCC(CF)(C(=O)O)CC6)C(C)(C)[C@@H]5CC[C@]43C)[C@@H]12` (mixture of isomers) [Example 1, 1-(fluoromethyl)-4-((1R,3aS,5aR,5bR,7aR,11aS,11bR,13aR,13bR)-5a,5b,8,8,11a-pentamethyl-3a-((2-(4-(methylsulfonyl)piperidin-1-yl)ethyl)amino)-1-(prop-1-en-2-yl)-2,3,3a,4,5,5a,5b,6,7,7a,8,11,11a,11b,12,13,13a,13b-octadecahydro-1H-cyclopenta[a]chrysen-9-yl)cyclohex-3-enecarboxylic acid]?
**A.** EC50 [1, 4]: 0.00293 µM; EC50 ([2]; Human immunodeficiency virus 1, NL43, MT2, read-out: A364V (EC50, uM), Table 1 regular screen, MT-2 cells, luciferase readout): 0.123 µM; EC50 ([3]; Human immunodeficiency virus 1, NL43, MT2, read-out: WT (EC50, uM), Table 1 regular screen, MT-2 cells, luciferase readout): 0.00175 µM

**Q.** With `C=C(C)[C@@H]1CC[C@]2(NCC[C@]3(O)CC[C@](C)(O)CC3)CC[C@]3(C)[C@H](CC[C@@H]4[C@@]5(C)CC=C(C6=CC[C@@](CF)(C(=O)O)CC6)C(C)(C)[C@@H]5CC[C@]43C)[C@@H]12` [Example 2-17, (R)-4-((1R,3aS,5aR,5bR,7aR,11aS,11bR,13aR,13bR)-3a-((2-((trans)-1,4-dihydroxy-4-methylcyclohexyl)ethyl)amino)-5a,5b,8,8,11a-pentamethyl-1-(prop-1-en-2-yl)-2,3,3a,4,5,5a,5b,6,7,7a,8,11,11a,11b,12,13,13a,13b-octadecahydro-1H-cyclopenta[a]chrysen-9-yl)-1-(fluoromethyl)cyclohex-3-enecarboxylic acid] as the compound, how does the EC50 [1, 4] read?
**A.** 0.00937 µM

**Q.** What about the EC50 [2, 5] of the same compound?
**A.** < 0.05 µM

**Q.** And the EC50 [3, 6]?
**A.** < 0.05 µM

**Q.** Which results are given for `C=C(C)[C@@H]1CC[C@]2(NCCC3(O)COC3)CC[C@]3(C)[C@H](CC[C@@H]4[C@@]5(C)CC=C(C6=CC[C@@](CF)(C(=O)O)CC6)C(C)(C)[C@@H]5CC[C@]43C)[C@@H]12` [Example 2-11, (R)-1-(fluoromethyl)-4-((1R,3aS,5aR,5bR,7aR,11aS,11bR,13aR,13bR)-3a-((2-(3-hydroxyoxetan-3-yl)ethyl)amino)-5a,5b, 8,8,11a-pentamethyl-1-(prop-1-en-2-yl)-2,3,3a,4,5,5a,5b,6,7,7a,8,11,11a,11b,12,13,13a,13b-octadecahydro-1H-cyclopenta[a]chrysen-9-yl)cyclohex-3-enecarboxylic acid]?
**A.** EC50 [1, 4]: 0.0153 µM; EC50 [2, 5]: > 0.05 µM; EC50 [3, 6]: < 0.05 µM
